The record followed here is patent EP0233461B2, “4,5,6-Substituted-2-pyrimidinamines” (AMERICAN CYANAMID COMPANY, priority 1986, dated 1987).

Structures can show the parent of a compound that is named as a salt.

The IC50 is the concentration needed to halve the response being measured.

The test system of the first experiment is human basophils. The experiment in a line: Inhibition of histamine release from immunologically stimulated human basophils. The following applies: Homo sapiens, concentration causing 50% inhibition of histamine release, by linear regression; active if IC50 ≦ 48 µM. The experiment is classed as cell-based. In short, it runs like this:
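Leukocytes from sedimented human blood, washed in Tris-A and resuspended in Tris-ACM, were challenged with anti-IgE or antigen, with or without compound, for 60 min at 37 °C. Released histamine was measured fluorometrically after OPT derivatization and expressed as percent of total (perchloric acid lysate), corrected for spontaneous release.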
As for `COc1ccc(Nc2nccc(-c3cccnc3)n2)cc1` [N-(4-Methoxyphenyl)-4-(3-pyridinyl)-2-pyrimidinamine, sulfate], the IC50 is < 48000 nM.
For the compound `c1ccc(Nc2nccc(-c3cccnc3)n2)cc1` [N-Phenyl-4-(3-pyridinyl)-2-pyrimidinamine, sulfate], inhibition was half-maximal at 3000 nM (IC50).

The experiment is the same for the next values; noted with them: Homo sapiens, concentration causing 50% inhibition of histamine release, by linear regression; active if IC50 ≦ 48 µM; read-out: IC50.
Regarding `COc1cccc(Nc2nccc(-c3ccncc3)n2)c1` [N-(3-Methoxyphenyl)-4-(4-pyridinyl)-2-pyrimidinamine], the IC50 stood at 400 nM.
Regarding `COc1cccc(Nc2nccc(-c3ccc(C)o3)n2)c1` [N-(3-Methoxyphenyl)-4-(5-methyl-2-furanyl)-2-pyrimidinamine], the IC50 turned out to be 1200 nM.
`COc1cccc(Nc2nccc(-c3ccc(C)s3)n2)c1` [N-(3-Methoxyphenyl)-4-(5-methyl-2-thienyl)-2-pyrimidinamine]: the IC50 is 2300 nM.
On the same count and under the same terms, the result for `Cc1cccc(Nc2nccc(-c3cccn3C)n2)c1` [N-(3-Methylphenyl)-4-(1-methyl-1H-pyrrol-2-yl)-2-pyrimidinamine] reads 9400 nM; that for `Cc1cccc(Nc2nccc(-c3ccc[nH]3)n2)c1` [N-(3-Methylphenyl)-4-(1H-pyrrol-2-yl)-2-pyrimidinamine], 11100 nM; that for `Cc1cccc(Nc2nccc(-c3ccccn3)n2)c1` [N-(3-Methylphenyl)-4-(2-pyridinyl)-2-pyrimidinamine], 700 nM.
`Cc1cccc(Nc2nccc(-c3cccs3)n2)c1` [N-(3-Methylphenyl)-4-(2-thienyl)-2-pyrimidinamine]: the IC50 came out at 300 nM.
For `Cc1cccc(Nc2nccc(-c3cccnc3)n2)c1` [N-(3-Methylphenyl)-4-(3-pyridinyl)-2-pyrimidinamine], the IC50 worked out at 1500 nM.
With `Cc1cccc(Nc2nccc(-c3ccsc3)n2)c1` [N-(3-Methylphenyl)-4-(3-thienyl)-2-pyrimidinamine], the IC50 is 3800 nM.
`Cc1cccc(Nc2nccc(-c3ccncc3)n2)c1` [N-(3-Methylphenyl)-4-(4-pyridinyl)-2-pyrimidinamine]: the IC50 was found to be 9400 nM.
Still for that read-out and setting: the result for `Cc1cccc(Nc2nccc(-c3ccnc4ccccc34)n2)c1` [N-(3-Methylphenyl)-4-(4-quinolinyl)-2-pyrimidinamine] reads 10900 nM; that for `Cc1cccc(Nc2nccc(-c3ccc(C)s3)n2)c1` [N-(3-Methylphenyl)-4-(5-methyl-2-thienyl)-2-pyrimidinamine], 1400 nM; that for `Cc1cccc(Nc2nccc(-c3cnccn3)n2)c1` [N-(3-Methylphenyl)-4-pyrazinyl-2-pyrimidinamine], 5400 nM.
For `CC(=O)c1ccc(Nc2nccc(-c3cccnc3)n2)cc1` [N-(4-Acetylphenyl)-4-(3-pyridinyl)-2-pyrimidinamine], the IC50 amounted to 800 nM.
With `Brc1ccc(Nc2nccc(-c3cccnc3)n2)cc1` [N-(4-Bromophenyl)-4-(3-pyridinyl)-2-pyrimidinamine], the IC50 turned out to be 2300 nM.
The same measure, in the same setting: the result for `CCc1ccc(Nc2nccc(-c3cccn3C)n2)cc1` [N-(4-Ethylphenyl)-4-(1-methyl-1H-pyrrol-2-yl)-2-pyrimidinamine] reads < 48000 nM; that for `CCc1ccc(Nc2nccc(-c3ccccn3)n2)cc1` [N-(4-Ethylphenyl)-4-(2-pyridinyl)-2-pyrimidinamine], 2100 nM; that for `CCc1ccc(Nc2nccc(-c3cccnc3)n2)cc1` [N-(4-Ethylphenyl)-4-(3-pyridinyl)-2-pyrimidinamine], < 48000 nM.
`CCc1ccc(Nc2nccc(-c3cc[n+]([O-])cc3)n2)cc1` [N-(4-Ethylphenyl)-4-(4-pyridinyl)-2-pyrimidinamine, pyridine-1-oxide]: the IC50 stood at 17700 nM.
`CCc1ccc(Nc2nccc(-c3ccncc3)n2)cc1` [N-(4-Ethylphenyl)-4-(4-pyridinyl)-2-pyrimidinamine]: the IC50 came out at 7700 nM.
On to `CCc1ccc(Nc2nccc(-c3ccnc4ccccc34)n2)cc1` [N-(4-Ethylphenyl)-4-(4-quinolinyl)-2-pyrimidinamine], for which the IC50 was 4000 nM.
Same read-out and setting: the result for `CCc1ccc(Nc2nccc(-c3ccc(C)s3)n2)cc1` [N-(4-Ethylphenyl)-4-(5-methyl-2-thienyl)-2-pyrimidinamine] reads 36300 nM.
For `CCc1ccc(Nc2nccc(-c3ccc(C)nc3)n2)cc1` [N-(4-Ethylphenyl)-4-(6-methyl-3-pyridinyl)-2-pyrimidinamine], the IC50 was 13400 nM.
With `CCc1ccc(Nc2nccc(-c3cnccn3)n2)cc1` [N-(4-Ethylphenyl)-4-pyrazinyl-2-pyrimidinamine], the IC50 stood at 2800 nM.
On to `CCc1ccc(Nc2ncc(C)c(-c3ccncc3)n2)cc1` [N-(4-Ethylphenyl)-5-methyl-4-(4-pyridinyl)-2-pyrimidinamine], for which the IC50 is < 48000 nM.
Same read-out and setting: the result for `CCc1ccc(Nc2nc(C)cc(-c3ccc(C)nc3)n2)cc1` [N-(4-Ethylphenyl)-6-methyl-4-(6-methyl-3-pyridinyl)-2-pyrimidinamine] reads 19100 nM; that for `Fc1ccc(Nc2nccc(-c3ccco3)n2)cc1` [N-(4-Fluorophenyl)-4-(2-furanyl)-2-pyrimidinamine], 13300 nM.
With `Fc1ccc(Nc2nccc(-c3cccnc3)n2)cc1` [N-(4-Fluorophenyl)-4-(3-pyridinyl)-2-pyrimidinamine], the IC50 is < 48000 nM.
Turning to `Fc1ccc(Nc2nccc(-c3ccncc3)n2)cc1` [N-(4-Fluorophenyl)-4-(4-pyridinyl)-2-pyrimidinamine], the IC50 was found to be 1900 nM.
As to `COc1ccc(Nc2nccc(-c3ccccn3)n2)cc1` [N-(4-Methoxyphenyl)-4-(2-pyridinyl)-2-pyrimidinamine], the IC50 was 8300 nM.
Regarding `COc1ccc(Nc2nccc(-c3cccs3)n2)cc1` [N-(4-Methoxyphenyl)-4-(2-thienyl)-2-pyrimidinamine], the IC50 was 3900 nM.
Consider `COc1ccc(Nc2nccc(-c3ccsc3)n2)cc1` [N-(4-Methoxyphenyl)-4-(3-thienyl)-2-pyrimidinamine], for which the IC50 was 15600 nM.
Still for that read-out and setting: the result for `COc1ccc(Nc2nccc(-c3ccncc3)n2)cc1` [N-(4-Methoxyphenyl)-4-(4-pyridinyl)-2-pyrimidinamine] reads 1000 nM; that for `c1ccc(-c2ccnc(NC3CCCC3)n2)nc1` [N-Cyclopentyl-4-(2-pyridinyl)-2-pyrimidinamine], 2200 nM.
Regarding `CNC(=O)c1ccc(Nc2nccc(-c3cccnc3)n2)cc1` [N-Methyl-4-[[4-(3-pyridinyl)-2-pyrimidinyl]amino]benzamide], the IC50 turned out to be 4600 nM.
Consider `CNc1ccc(Nc2nccc(-c3ccccn3)n2)cc1` [N-Methyl-N'-[4-(2-pyridinyl)-2-pyrimidinyl]-1,4-benzenediamine], for which the IC50 amounted to 1400 nM.
Turning to `CNc1ccc(Nc2nccc(-c3cccnc3)n2)cc1` [N-Methyl-N'-[4-(3-pyridinyl)-2-pyrimidinyl]-1,4-benzenediamine], the IC50 amounted to 2100 nM.
Still for that read-out and setting: the result for `CC(=O)N(C)c1ccc(Nc2nccc(-c3ccccn3)n2)cc1` [N-Methyl-N-[4-[[4-(2-pyridinyl)-2-pyrimidinyl]amino]phenyl]acetamide] reads 600 nM.
Still for that read-out and setting: the result for `CC(=O)N(C)c1ccc(Nc2nccc(-c3cccnc3)n2)cc1` [N-Methyl-N-[4-[[4-(3-pyridinyl)-2-pyrimidinyl]amino]phenyl]acetamide] reads 1100 nM.
Consider `CC(=O)N(C)c1ccc(Nc2nccc(-c3ccncc3)n2)cc1` [N-Methyl-N-[4-[[4-(4-pyridinyl)-2-pyrimidinyl]amino]phenyl]acetamide], for which the half-maximal inhibitory concentration (IC50) was 100 nM.
Same read-out and setting: the result for `c1ccc(Nc2nccc(-c3cccs3)n2)cc1` [N-Phenyl-4-(2-thienyl)-2-pyrimidinamine] reads 31700 nM.

Staying with this experiment, now noted: concentration causing 50% inhibition of histamine release, by linear regression; active if IC50 ≦ 48 µM; dihydrochloride; read-out: IC50.
As for `c1ccc(Nc2nccc(-c3ccncc3)n2)cc1` [N-Phenyl-4-(4-pyridinyl)-2-pyrimidinamine, dihydrochloride], the IC50 is 3000 nM.

The same experiment, now with this note: concentration causing 50% inhibition of histamine release, by linear regression; active if IC50 ≦ 48 µM; dinitrate.
In turn, `c1ccc(Nc2nccc(-c3ccncc3)n2)cc1` [N-Phenyl-4-(4-pyridinyl)-2-pyrimidinamine, dinitrate] registered an IC50 of 1200 nM.

The same experiment, now with this note: concentration causing 50% inhibition of histamine release, by linear regression; active if IC50 ≦ 48 µM; phosphate; read-out: IC50.
For the compound `COc1ccc(Nc2nccc(-c3cccnc3)n2)cc1` [N-(4-Methoxyphenyl)-4-(3-pyridinyl)-2-pyrimidinamine, phosphate], the IC50 came out at 3200 nM.
Same read-out and setting: the result for `c1ccc(Nc2nccc(-c3cccnc3)n2)cc1` [N-Phenyl-4-(3-pyridinyl)-2-pyrimidinamine, phosphate] reads 2700 nM; that for `c1ccc(Nc2nccc(-c3ccncc3)n2)cc1` [N-Phenyl-4-(4-pyridinyl)-2-pyrimidinamine, phosphate], 3300 nM.

Staying with this experiment, now noted: concentration causing 50% inhibition of histamine release, by linear regression; active if IC50 ≦ 48 µM; read-out: IC50.
Take `COc1ccc(Nc2nccc(-c3cccnc3)n2)cc1` [N-(4-Methoxyphenyl)-4-(3-pyridinyl)-2-pyrimidinamine]: the IC50 turned out to be 1400 nM.
The same measure, in the same setting: the result for `c1ccc(Nc2nccc(-c3cccnc3)n2)cc1` [N-Phenyl-4-(3-pyridinyl)-2-pyrimidinamine] reads 900 nM.
Regarding `c1ccc(Nc2nccc(-c3ccncc3)n2)cc1` [N-Phenyl-4-(4-pyridinyl)-2-pyrimidinamine, (Z)-2-butenedioat] [N-Phenyl-4-(4-pyridinyl)-2-pyrimidinamine, (Z)-2-butenedioate (1:1)], the IC50 was found to be 1000 nM.
Turning to `c1ccc(Nc2nccc(-c3ccncc3)n2)cc1` [N-Phenyl-4-(4-pyridinyl)-2-pyrimidinamine, compound with 2-h] [N-Phenyl-4-(4-pyridinyl)-2-pyrimidinamine, compound with 2-hydroxy-1,2,3-propanetricarboxylate (2:1)], the IC50 came to 3500 nM.

The same experiment, now with this note: concentration causing 50% inhibition of histamine release, by linear regression; active if IC50 ≦ 48 µM; sulfate.
Consider `Cc1cccc(Nc2nccc(-c3cccs3)n2)c1` [N-(3-Methylphenyl)-4-(2-thienyl)-2-pyrimidinamine, sulfate], for which the IC50 came out at 3000 nM.
